Data set [1] is described as follows: Human Liver Microsome Stability. It is filed as in vitro ADME. The following applies: human liver microsomes 0.5 mg/mL, 37° C., 60 min; for half-life at 2 μM: read-out: T1/2 (microsomal); for microsomal CLint at 2 μM: read-out: in vitro CLint (microsomal). On the procedure: The tested compound was incubated in duplicate with human liver microsomes (0.5 mg/mL) at 37° C. These incubations were carried out at a final test article concentration of 2 μM over a total incubation period of 60 minutes. Samples were taken at 0, 15, 30, 45 and 60 min and the reaction terminated by addition of 4 volumes of acetonitrile containing internal standard (100 nM alprazolam, 200 nM imipramine, 200 nM labetalol and 2 μM ketoprofen). Diclofenac was used as a positive control in this study. The samples were analyzed by UPLC-MS/MS to determine the concentration of the test compound and the percent remaining, intrinsic clearance (in vitro CLint) and half-life (T1/2) values were calculated.
(§1) Chromatographic analyses were performed on a Shimadzu UPLC apparatus (Kyoto, Japan) consisting of a gradient pump (model LC-30AD), an automatic injector (model HTC PAL System) and an on-line degasser (model DGU-20A5R). Detection was a triple quadrupole tandem mass spectrometer equipped with a turbo ion spray interface (API 4000/Triple Quad 4500/Triple Quad 5500/Triple Quad 6500). Data acquisition and integration were carried out with LC-MS software (Analyst 1.6) linked directly to the LC-MS/MS system. Chromatographic separations were achieved on a XSelect Hss T3 2.5μ (2.1×30 mm) Column. The mobile phase was 0.1% formic acid in water (A) and 0.1% formic acid in acetonitrile (B). The flow rate was 1.0 mL/min and column was maintained at 40° C.
Half-life (T1/2) data is measured in minutes, and in Table B2, the data is grouped into categories of by the following rules: • T1/2 (microsomal): A=100+; B=50 to 100; C=20 to 50; D<20.
In vitro clearance (CLint) data is measured in μL/min/mg prot, and in Table B2, the data is grouped into categories of by the following rules: • CLint (microsomal): A<20; B=20 to 50; C=50 to 100; and D=100+.

Data set [2] has as its target T1, EP2 receptor (Homo sapiens, UniProt P43116).
T1 construct: expressed in transfected cells; host or cells: CHO-K1 cells (ATCC), transient transfection with FuGENE 6
The data set is described as follows: EP2 Potency Assay (cAMP TR-FRET, CHO-K1 cells transfected with EP2 receptor, PGE2 at EC80). The following applies: CHO-K1 cells expressing EP2, prostaglandin E2 at EC80, read-out: EP2 Potency (IC50 category). It is filed as cell-based. The gist of the method: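 CHO-K1 cells transiently transfected with EP2 and seeded 24 h after transfection. IC50 from curve fit of percent inhibition versus concentration.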

A short description of data set [3]: Human Hepatocyte Stability. The following applies: human hepatocytes 0.5×10^6 cells/mL, 120 min; for half-life at 1 μM: read-out: T1/2 (hepatic); for microsomal CLint at 1 μM: read-out: in vitro CLint (hepatic). It is filed as in vitro ADME. On the procedure:
The tested compound was incubated in duplicate with incubation media (Williams' Medium E with 1× GlutaMAX) containing human hepatocytes (0.5×10^6 cells/mL). These incubations were carried out at a final test concentration of 1 μM over a total incubation period of 120 minutes. Samples were taken at 0, 15, 30, 60, 90 and 120 min and the reaction was terminated by addition of acetonitrile containing internal standard (100 nM alprazolam, 200 nM labetalol, 200 nM caffeine and 200 nM diclofenac). Verapamil was used as the positive control in this study. The samples were analyzed by UPLC-MS/MS to determine the concentration of the tested compound and the percentage remaining, intrinsic clearance (in vitro CLint) and half-life (t½) values were calculated.
as §1
Half-life (T1/2) data is measured in minutes, and in Table B2, the data is grouped into categories of by the following rules: • T1/2 (hepatic): A=200+; B=100 to 200; C=50 to 100; and D<50.
In vitro clearance (CLint) data is measured in μL/min/mg prot, and in Table B3, the data is grouped into categories of by the following rules: • CLint (microsomal): A<5; B=5 to 10; C=10 to 20; and D=20+.

SMILES strings stand for the structures.

The record followed here is patent US12624024B2, “EP2 antagonist compounds” (Reservoir Neuroscience, Inc., priority 2021, dated 2026).

T1 sequence (P43116 whole entry): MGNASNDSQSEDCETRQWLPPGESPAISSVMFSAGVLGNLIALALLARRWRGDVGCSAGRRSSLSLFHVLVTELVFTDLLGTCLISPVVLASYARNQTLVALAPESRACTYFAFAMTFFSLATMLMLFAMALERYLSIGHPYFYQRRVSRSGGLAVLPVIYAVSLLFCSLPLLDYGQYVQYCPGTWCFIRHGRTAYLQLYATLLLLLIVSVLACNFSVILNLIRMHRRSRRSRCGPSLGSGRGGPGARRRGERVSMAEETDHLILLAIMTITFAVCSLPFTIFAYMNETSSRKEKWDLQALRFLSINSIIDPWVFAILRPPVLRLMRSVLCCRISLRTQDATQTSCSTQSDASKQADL

For the compound `O=c1ncc(CN2CCOc3c(Cl)cc(-n4ccc5cc(F)ccc54)cc3C2)c[nH]1` [Compound 58], in data set [1], the half-life at 2 μM was > 1.67 h and the microsomal CLint at 2 μM was < 20 µL/min/mg. Further, in data set [2], the IC50 was < 100 nM. In addition, in data set [3], the half-life at 1 μM is > 3.33 h and the microsomal CLint at 1 μM was in the range of 5 to 10 µL/min/mg.

For `Nc1ncc(CN2CCOc3c(Cl)cc(-n4ccc5cc(F)ccc54)cc3C2)cn1` [Compound 146], in data set [1], the half-life at 2 μM was < 0.333 h and the microsomal CLint at 2 μM lay in the range of 50 to 100 µL/min/mg. In addition, the IC50 in data set [2] was < 100 nM. In data set [3], the half-life at 1 μM fell in the range of 1.67 to 3.33 h and the microsomal CLint at 1 μM was in the range of 10 to 20 µL/min/mg.

Take `Fc1ccc2c(ccn2-c2cc(Cl)c3c(c2)CN(Cc2ccnc(C4COC4)c2)CCO3)c1` [Compound 187, 9-chloro-7-(5-fluoroindol-1-yl)-4-{[2-(oxetan-3-yl)pyridin-4-yl]methyl}-3,5-dihydro-2H-1,4-benzoxazepine]: in data set [1], the half-life at 2 μM is < 0.333 h and the microsomal CLint at 2 μM is > 100 µL/min/mg. The IC50 in data set [2] fell in the range of 100 to 500 nM. For the same compound, in data set [3], the half-life at 1 μM is < 0.833 h and the microsomal CLint at 1 μM was > 20 µL/min/mg.
